Experimental data reported in patent US11845828B2, “Polymerizable composition for optical material, optical material, and producing method thereof” (Mitsui Chemicals, Inc., priority 2016, dated 2023).

Assay: pKa value (acid dissociation index) of compound (A)

Row | pKa | Compound
1 | 2.84 | Clc1cccnc1 [Example A3, 3-chloropyridine]
2 | 6.6 | Cc1cccc(C)n1 [Example A5, 2,6-lutidine]
3 | 7.48 | Cc1cc(C)nc(C)c1 [Example A6, 2,4,6-trimethylpyridine]
4 | 8.35 | CCCCCCCCN(CCCCCCCC)CCCCCCCC [Example A7, trioctylamine]
